Results taken from ChEMBL document CHEMBL1140810, “Conversion of an MMP-potent scaffold to an MMP-selective HER-2 sheddase inhibitor via scaffold hybridization and subtle P1' permutations” (Bioorg Med Chem Lett, 2008).
pIC50: −log10 of the molar value.

Assays:
Stromelysin-1 = Stromelysin-1 (Homo sapiens, UniProt P08254); experiment: Inhibition of MMP3
[1] = target: T1, Disintegrin and metalloproteinase domain-containing protein 10 (Homo sapiens, UniProt O14672)
T1 sequence (O14672 whole entry): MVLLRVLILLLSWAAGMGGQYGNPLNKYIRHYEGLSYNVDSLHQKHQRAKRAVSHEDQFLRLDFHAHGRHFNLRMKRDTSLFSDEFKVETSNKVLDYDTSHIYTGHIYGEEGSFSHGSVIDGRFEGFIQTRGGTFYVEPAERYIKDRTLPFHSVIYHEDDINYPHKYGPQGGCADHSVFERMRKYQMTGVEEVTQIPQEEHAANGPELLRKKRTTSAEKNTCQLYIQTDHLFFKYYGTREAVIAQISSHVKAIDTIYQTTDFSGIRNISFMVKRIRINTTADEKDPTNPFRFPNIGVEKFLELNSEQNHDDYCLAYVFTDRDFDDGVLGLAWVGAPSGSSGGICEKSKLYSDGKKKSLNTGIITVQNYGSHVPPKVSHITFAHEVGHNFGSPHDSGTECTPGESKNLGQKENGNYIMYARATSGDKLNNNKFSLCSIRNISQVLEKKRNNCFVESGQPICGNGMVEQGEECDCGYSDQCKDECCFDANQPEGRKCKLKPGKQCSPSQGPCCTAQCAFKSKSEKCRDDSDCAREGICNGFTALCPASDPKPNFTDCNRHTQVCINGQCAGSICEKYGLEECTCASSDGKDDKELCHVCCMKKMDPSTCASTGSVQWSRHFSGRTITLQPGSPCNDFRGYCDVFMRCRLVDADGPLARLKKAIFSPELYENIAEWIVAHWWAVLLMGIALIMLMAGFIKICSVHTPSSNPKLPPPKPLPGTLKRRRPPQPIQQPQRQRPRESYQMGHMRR

[2] = target: 72 kDa type IV collagenase (Homo sapiens, UniProt P08253)
Chain of 72 kDa type IV collagenase (P08253 whole entry): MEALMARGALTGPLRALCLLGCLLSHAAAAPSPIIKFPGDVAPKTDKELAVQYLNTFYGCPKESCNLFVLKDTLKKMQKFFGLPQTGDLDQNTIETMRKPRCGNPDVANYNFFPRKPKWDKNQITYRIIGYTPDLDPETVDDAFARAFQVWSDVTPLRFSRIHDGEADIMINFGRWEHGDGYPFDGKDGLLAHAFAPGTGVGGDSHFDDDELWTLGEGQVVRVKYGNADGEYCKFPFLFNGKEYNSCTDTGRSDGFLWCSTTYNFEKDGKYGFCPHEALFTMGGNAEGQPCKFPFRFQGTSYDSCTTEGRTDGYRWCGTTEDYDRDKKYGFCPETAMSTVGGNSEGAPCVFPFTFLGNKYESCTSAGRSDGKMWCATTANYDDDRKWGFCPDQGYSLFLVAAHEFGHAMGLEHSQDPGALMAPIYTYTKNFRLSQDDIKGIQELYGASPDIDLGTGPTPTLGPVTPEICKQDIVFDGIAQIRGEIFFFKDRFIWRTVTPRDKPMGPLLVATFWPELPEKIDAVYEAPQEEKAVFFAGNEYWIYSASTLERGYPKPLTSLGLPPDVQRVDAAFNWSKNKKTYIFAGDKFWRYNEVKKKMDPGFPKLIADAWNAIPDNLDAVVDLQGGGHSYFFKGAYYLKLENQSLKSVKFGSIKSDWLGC

Interstitial collagenase = target: T2, Interstitial collagenase (Homo sapiens, UniProt P03956)
T2 sequence (P03956 whole entry): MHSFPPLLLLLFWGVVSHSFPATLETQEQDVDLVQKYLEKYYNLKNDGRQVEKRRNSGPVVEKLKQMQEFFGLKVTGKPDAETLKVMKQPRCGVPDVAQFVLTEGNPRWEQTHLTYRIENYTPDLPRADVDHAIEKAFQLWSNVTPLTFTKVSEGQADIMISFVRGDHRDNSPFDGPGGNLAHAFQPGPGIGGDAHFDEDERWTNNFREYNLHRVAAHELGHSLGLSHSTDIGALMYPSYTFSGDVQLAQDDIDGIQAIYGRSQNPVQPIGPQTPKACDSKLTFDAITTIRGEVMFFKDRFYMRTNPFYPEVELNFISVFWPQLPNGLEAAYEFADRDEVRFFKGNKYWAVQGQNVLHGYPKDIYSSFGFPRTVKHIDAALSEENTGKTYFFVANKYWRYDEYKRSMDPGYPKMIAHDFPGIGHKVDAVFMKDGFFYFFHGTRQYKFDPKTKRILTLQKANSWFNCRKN

[3] = target: Matrix metalloproteinase-9 (Homo sapiens, UniProt P14780); experiment: Inhibition of MMP9
Chain of Matrix metalloproteinase-9 (P14780 whole entry, the tested form may be a part): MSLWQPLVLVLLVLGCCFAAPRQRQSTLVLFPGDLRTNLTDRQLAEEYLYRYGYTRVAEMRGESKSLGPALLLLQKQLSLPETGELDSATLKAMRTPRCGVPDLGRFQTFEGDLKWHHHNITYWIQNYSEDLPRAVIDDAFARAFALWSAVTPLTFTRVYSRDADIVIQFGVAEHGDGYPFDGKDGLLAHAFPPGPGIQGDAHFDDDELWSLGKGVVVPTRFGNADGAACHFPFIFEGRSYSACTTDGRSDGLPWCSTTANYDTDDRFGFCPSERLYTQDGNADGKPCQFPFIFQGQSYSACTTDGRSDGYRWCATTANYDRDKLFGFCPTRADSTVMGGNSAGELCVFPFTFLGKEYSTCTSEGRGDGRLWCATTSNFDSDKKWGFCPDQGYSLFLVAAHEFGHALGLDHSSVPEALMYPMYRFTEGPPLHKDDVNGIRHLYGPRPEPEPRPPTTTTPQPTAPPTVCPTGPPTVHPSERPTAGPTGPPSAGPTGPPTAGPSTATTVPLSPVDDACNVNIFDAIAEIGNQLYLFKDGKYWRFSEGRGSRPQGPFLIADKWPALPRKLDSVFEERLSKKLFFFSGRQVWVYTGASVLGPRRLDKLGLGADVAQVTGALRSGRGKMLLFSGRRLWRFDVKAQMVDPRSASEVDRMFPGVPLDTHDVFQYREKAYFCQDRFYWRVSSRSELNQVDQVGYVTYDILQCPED

[4] = target: T1, Disintegrin and metalloproteinase domain-containing protein 10; experiment: Inhibition of HER2 sheddase in human BT474 cells; type: cell-based, BT-474

Chain of Stromelysin-1 (P08254 whole entry, the tested form may be a part): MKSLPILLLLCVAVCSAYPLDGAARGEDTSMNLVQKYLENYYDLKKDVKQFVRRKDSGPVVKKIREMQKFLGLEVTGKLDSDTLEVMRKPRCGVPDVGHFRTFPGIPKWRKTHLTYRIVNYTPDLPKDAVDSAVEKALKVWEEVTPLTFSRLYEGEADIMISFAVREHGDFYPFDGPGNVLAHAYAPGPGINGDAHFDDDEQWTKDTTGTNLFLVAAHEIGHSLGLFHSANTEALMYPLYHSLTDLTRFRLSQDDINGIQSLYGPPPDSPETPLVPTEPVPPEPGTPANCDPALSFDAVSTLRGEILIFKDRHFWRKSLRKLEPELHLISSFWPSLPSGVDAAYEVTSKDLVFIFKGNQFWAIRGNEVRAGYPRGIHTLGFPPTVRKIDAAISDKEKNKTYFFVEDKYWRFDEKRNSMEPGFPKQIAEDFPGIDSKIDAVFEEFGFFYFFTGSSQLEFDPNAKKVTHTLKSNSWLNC

Row | pIC50 (Stromelysin-1) | pIC50 [1] | pIC50 [2] | pIC50 (Interstitial collagenase) | pIC50 [3] | pIC50 [4] | SMILES
1 | 6.03 | 7.36 | 6.87 | < 5.30 | 7.00 | 7.12 | O=C(O[C@H]1CCOC1)N1CCC(CS(=O)(=O)N2CCC(c3ccccc3F)CC2)(C(=O)NO)CC1
2 |  | 6.97 | 5.81 |  |  | 7.35 | Cc1cc(C#N)ccc1C1=CCN(S(=O)(=O)CC2(C(=O)NO)CCN(C(=O)O[C@H]3CCOC3)CC2)CC1
3 |  | 7.72 | < 5.70 | < 5.30 |  | 7.52 | Cc1ccccc1C1CCN(S(=O)(=O)CC2(C(=O)NO)CCN(C(=O)OC[C@H]3CCCN3)CC2)CC1
4 | > 8.82 |  | > 8.82 | 5.06 | > 8.82 |  | C#CCN1CCC(CS(=O)(=O)c2ccc(Oc3ccccc3)cc2)(C(=O)NO)CC1
5 | 6.63 | 8.00 | 8.40 | 6.59 | 7.60 | 8.15 | O=C(O[C@H]1CCOC1)N1CCC(CS(=O)(=O)N2CC=C(c3ccccc3)CC2)(C(=O)NO)CC1
6 |  | 7.41 | 8.05 |  |  | 7.11 | N#Cc1ccc(C2CCN(S(=O)(=O)CC3(C(=O)NO)CCN(C(=O)O[C@H]4CCOC4)CC3)CC2)cc1
7 |  | 5.98 | < 5.70 |  |  | < 6.00 | O=C(O[C@H]1CCOC1)N1CCC(CS(=O)(=O)N2CCC(c3ccccc3C(F)(F)F)CC2)(C(=O)NO)CC1
8 |  | 7.62 | < 5.70 | < 5.30 |  | 7.72 | Cc1cc(C#N)ccc1C1=CCN(S(=O)(=O)CC2(C(=O)NO)CCN(C(=O)OC[C@H]3CCCN3)CC2)CC1
9 |  | 7.47 | < 5.70 | < 5.30 |  | 7.64 | Cc1ccccc1C1CCN(S(=O)(=O)CC2(C(=O)NO)CCN(C(=O)OC[C@@H]3CCCN3)CC2)CC1
10 |  | 8.04 | 5.90 | < 5.30 |  | 8.19 | Cc1cc(C#N)ccc1C1CCN(S(=O)(=O)CC2(C(=O)NO)CCN(C(=O)OC[C@@H]3CCCN3)CC2)CC1
11 | < 5.30 | 7.59 | < 5.30 | < 5.30 | < 5.30 | 7.60 | Cc1cc(C#N)ccc1N1CCN(S(=O)(=O)CC2(C(=O)NO)CCN(C(=O)O[C@H]3CCOC3)CC2)CC1
12 |  | 7.47 | < 5.70 | < 5.30 |  | 7.57 | Cc1cc(C#N)ccc1C1=CCN(S(=O)(=O)CC2(C(=O)NO)CCN(C(=O)OC[C@@H]3CCCN3)CC2)CC1
13 |  | 7.04 | < 5.70 |  |  | 6.85 | Cc1cc(F)ccc1C1CCN(S(=O)(=O)CC2(C(=O)NO)CCN(C(=O)O[C@H]3CCOC3)CC2)CC1
14 |  | < 5.70 | 6.18 |  |  | < 6.00 | Cc1cc(C(=O)N(C)C)ccc1C1CCN(S(=O)(=O)CC2(C(=O)NO)CCN(C(=O)O[C@H]3CCOC3)CC2)CC1
15 |  | 7.74 | 6.26 | < 5.30 |  | 7.80 | Cc1ccccc1C1CCN(S(=O)(=O)CC2(C(=O)NO)CCN(C(=O)OC3CCNC3)CC2)CC1 (configuration not stated)
16 |  | 6.58 | 6.26 |  |  | 6.45 | O=C(O[C@H]1CCOC1)N1CCC(CS(=O)(=O)N2CCC(c3ccccc3)C2)(C(=O)NO)CC1 (some centres not stated)

Row | pIC50 (Stromelysin-1) | pIC50 [1] | pIC50 [2] | pIC50 (Interstitial collagenase) | pIC50 [3] | pIC50 [4] | SMILES
17 |  | 7.66 | 6.24 | < 5.30 |  | 7.85 | Cc1ccccc1C1CCN(S(=O)(=O)CC2(C(=O)NO)CCN(C(=O)OC3COCC3(C)C)CC2)CC1 (configuration not stated)
18 |  | < 5.70 | < 5.70 |  |  | < 6.00 | N#Cc1ccccc1C1CCN(S(=O)(=O)CC2(C(=O)NO)CCN(C(=O)O[C@H]3CCOC3)CC2)CC1
19 |  | 8.11 | < 5.70 | < 5.30 |  | 7.89 | Cc1cc(C#N)ccc1C1CCN(S(=O)(=O)CC2(C(=O)NO)CCN(C(=O)OC3CCNC3)CC2)CC1 (configuration not stated)
20 | < 5.30 | 7.74 | < 5.70 | < 5.30 | < 5.30 | 7.39 | Cc1ccccc1C1CCN(S(=O)(=O)CC2(C(=O)NO)CCN(C(=O)O[C@H]3CCOC3)CC2)CC1
21 |  | 7.96 | 6.25 | < 5.30 |  | 7.44 | Cc1ccccc1C1CCN(S(=O)(=O)CC2(C(=O)NO)CCN(C(=O)OC3(C)CCOC3)CC2)CC1 (configuration not stated)
22 |  | 6.48 | 7.28 |  |  | 6.99 | O=C(O[C@H]1CCOC1)N1CCC(CS(=O)(=O)N2CC=C(c3ccccc3)C2)(C(=O)NO)CC1
23 | 6.44 | 7.55 | 7.74 | 6.12 | 7.66 | 7.66 | O=C(O[C@H]1CCOC1)N1CCC(CS(=O)(=O)N2CCC(c3ccccc3)CC2)(C(=O)NO)CC1
24 | < 5.30 | 7.92 | 5.70 | < 5.30 | < 5.30 | 7.85 | Cc1cc(C#N)ccc1C1CCN(S(=O)(=O)CC2(C(=O)NO)CCN(C(=O)O[C@H]3CCOC3)CC2)CC1
25 |  | 7.96 | 5.86 | < 5.30 |  | 7.64 | Cc1cc(C#N)ccc1C1CCN(S(=O)(=O)CC2(C(=O)NO)CCN(C(=O)OC[C@H]3CCCN3)CC2)CC1
26 |  | 6.97 | < 5.70 |  |  | 6.66 | Cc1ccccc1N1CCN(S(=O)(=O)CC2(C(=O)NO)CCN(C(=O)O[C@H]3CCOC3)CC2)CC1
27 |  | 7.80 | 6.27 | 5.30 |  | 8.21 | Cc1ccccc1C1CCN(S(=O)(=O)CC2(C(=O)NO)CCN(C(=O)OC3CCCC3O)CC2)CC1 (trans isomer)
28 | 6.12 | 7.24 | 6.90 | < 5.30 | 6.27 | 7.02 | Cc1cc(C2CCN(S(=O)(=O)CC3(C(=O)NO)CCN(C(=O)O[C@H]4CCOC4)CC3)CC2)cc(C)c1C#N
29 | 5.67 | 6.54 | 6.50 | < 5.30 | 6.02 | 6.08 | Cc1cc(C)cc(C2CCN(S(=O)(=O)CC3(C(=O)NO)CCN(C(=O)O[C@H]4CCOC4)CC3)CC2)c1
30 | 6.03 | 7.82 | 7.89 | 6.11 | 7.11 | 7.89 | O=C(O[C@H]1CCOC1)N1CCC(CS(=O)(=O)N2CCN(c3ccccc3)CC2)(C(=O)NO)CC1
31 |  | 7.74 | 5.70 |  |  | 6.88 | Cc1ccccc1C1=CCN(S(=O)(=O)CC2(C(=O)NO)CCN(C(=O)O[C@H]3CCOC3)CC2)CC1
